Test results: paper PMC7738880, “Identification of novel CD44v6-binding peptides that block CD44v6 and deliver a pro-apoptotic peptide to tumors to inhibit tumor growth and metastasis in mice” (Theranostics, 2021)
Residues, ends and D or L forms follow the SMILES beside them.

How the values were obtained:
MDA-MB231 cells [1] = assay: Annexin V/propidium iodide apoptosis assay, MDA-MB231; assay type: cell-based, human; conditions: 2 h, versus combined NLN or NEW and KLA
Description: (§1) For apoptosis assays, cells were plated in 6-well plates at a density of 5 × 10^5 cells per well overnight and treated with different concentrations of peptides (0, 2, 4, 8, 16, 32, 64, 128, and 256 µM) at 37 °C for 2 h. Cells were harvested, washed, and mixed with annexin V binding buffer. Then, 1 μg/mL of propidium iodide and 5 μL of APC annexin V reagent (ThermoFisher Scientific, Waltham, MA) were added to stain necrotic and apoptotic cells. Percent of annexin V-positive and propidium iodide-negative cells were measured using flow cytometry.

4T1 cells = assay: Annexin V/propidium iodide apoptosis assay, 4T1; assay type: cell-based, mouse; conditions: 2 h, versus combined NLN or NEW and KLA
Description: as §1

Panc-1 cells [2] = assay: Annexin V/propidium iodide apoptosis assay, Panc-1; assay type: cell-based, human; conditions: 2 h, versus combined NLN or NEW and KLA
Description: as §1

MDA-MB231 cells [3] = assay: Intracellular trafficking with MitoTracker and LysoTracker; assay type: cell-based, human; conditions: peptide 10 µM, 37 °C, 2-4 h, confocal
Description: To examine the intracellular trafficking of peptides cells were incubated with peptides (10 µM) at 37 °C for 2 h and stained with MitoTracker Deep Red FM (ThermoFisher Scientific), a mitochondrial marker. In another set of experiments, cells were incubated with peptides at 37 °C for 4 h and stained with LysoTracker Red DND-99 (ThermoFisher Scientific), a late endosome/lysosome marker. After staining, cells were fixed with 4% paraformaldehyde for 10 min at room temperature, stained with DAPI, and then mounted using ProLong gold anti-fade reagent (ThermoFisher Scientific). Subcellular fluorescence was detected using a confocal microscope (Zeiss).

4T1-luc cells = assay: 4T1-luc orthotopic spontaneous metastasis model; assay type: in vivo; conditions: 10 mg/kg i.v. thrice weekly for 3 weeks; for hematologic parameters and liver and kidney functional marker levels: n = 5/group; for luminescence signals and total photon flux from the whole body: n = 10 per group; for luminescence signals and total photon flux from the whole body / TUNEL-positive apoptotic cells in primary tumor tissues / number of metastatic tumor nodules / percent survival / tumor volume / tumor weight: more efficiently than combined NLN or NEW and KLA
Description: (§2) 4T1-luc cells (1 × 10^6 cells) were orthotopically inoculated into the mammary fat pads in 6-week-old female BALB/c mice. Panc-1 cells (1 × 10^6 cells) were subcutaneously inoculated into lower right flank in 6-week-old female BALB/c nude mice To monitor 4T1-luc tumor growth, mice were intraperitoneally injected with D-luciferin (150 mg/kg body weight), incubated for 10 min, and subjected to a whole-body bioluminescence imaging using the IVIS imaging system (Perkin Elmer). At two weeks after the inoculation, mice were randomly sorted into groups based on the luminescence intensity (4T1-luc) or tumor size (Panc-1). CD44v6-binding peptides were administered intravenously to 4T1 tumor-bearing mice (n = 6 per group) through the tail vein (14.2 mg/kg body weight, thrice weekly for three weeks) alone or in combination with crizotinib. Crizotinib in 5% DMSO was administered orally (12.5 and 25 mg/kg body weight, twice weekly for three weeks). CD44v6-targeted pro-apoptotic peptides or CD44v6-binding peptides and pro-apoptotic peptide in combination were intravenously administered to 4T1 or Panc-1 tumor-bearing mice (n = 10 per group) through the tail vein (10 mg/kg body weight, thrice weekly for 3 weeks). Primary tumor growth was monitored by measuring tumor volumes using a caliper and total photon flux in the whole body using the IVIS imaging system. The body weights and tumor ulceration were monitored throughout the treatment period. At the end of the treatments, half of the mice were used for the collection of blood, sacrificed, and the primary tumor weights and numbers of metastatic tumor nodules in the isolated lungs were determined. The remaining mice were maintained until death to determine the survival rates. The hematological parameters and liver and kidney function markers in plasma and serum samples were analyzed as described above. The normal ranges of hematological parameters of the BALB/c mouse and BALB/c nude mouse were obtained from Charles River Laboratories website (www.criver.com).

Panc-1 cells [4] = assay: Panc-1 subcutaneous spontaneous metastasis model; assay type: in vivo, BALB/c nude mouse; conditions: 10 mg/kg i.v. thrice weekly for 3 weeks; more efficiently than combined NLN or NEW and KLA
Description: as §2

MDA-MB231-luc cells = assay: MDA-MB231-luc experimental lung metastasis model; assay type: in vivo
Description: A mouse model of lung metastasis of breast cancer was prepared by injecting 1 × 10^6 MDA-MB231-luc cells into 6-week-old female BALB/c nude mice via tail vein. To monitor the localization of the tumor cells in the lungs, the mice were injected intraperitoneally with D-luciferin at a dose of 150 mg/kg body weight and subjected to a whole-body bioluminescence imaging using IVIS imaging system (Perkin Elmer) after a 10-min resting period. Mice (n = 10 per group) were randomly assigned to groups based on the luminescence intensity. At 1 h after tumor cell injection, tumor-bearing mice received intravenous injections of CD44v6-binding peptides through the tail vein (14.2 mg/kg body weight, thrice weekly for 3 weeks) alone or in combination with orally administered crizotinib in 5% dimethyl sulfoxide (DMSO) (25 mg/kg of body weight, twice weekly for 3 weeks) as previously described, [29]. Metastatic tumor growth after treatments was monitored by measuring the total photon flux (number of photons/second) in the whole body using the IVIS imaging system. The body weights of mice and tumor ulceration were monitored throughout the treatment period. At the end of the treatment period, half of the mice (n = 5 per group) were used for the collection of blood, sacrificed, the lungs were harvested and weighed, and the numbers of metastatic tumor nodules in the lungs were counted. The remaining mice (n = 5 per group) were maintained until death to determine the survival rates. For the analysis of hematological parameters, 1 mL of blood was collected from each mouse and separated into 500 µL aliquots used to prepare serum and plasma. Serum was obtained by centrifuging clotted blood at 4 °C twice, followed by filtration (pore size: 0.22 µm). Plasma was obtained by centrifuging ethylenediaminetetraacetic acid-treated samples. Hematological parameters and liver and kidney function markers were measured by DGMIF (Daegu, Korea).

[5] = biological target: CD44v6, endogenous in MDA-MB231 human breast tumor cells (human (endogenous in MDA-MB231)); assay: saturation binding to cells; saturation binding assays on MDA-MB231, 4T1, Panc-1 and MCF7 cells (Figure S2A); method and label of the peptide not given
Chain of CD44v6, endogenous in MDA-MB231 human breast tumor cells (human (endogenous in MDA-MB231)) (P16070 21-742): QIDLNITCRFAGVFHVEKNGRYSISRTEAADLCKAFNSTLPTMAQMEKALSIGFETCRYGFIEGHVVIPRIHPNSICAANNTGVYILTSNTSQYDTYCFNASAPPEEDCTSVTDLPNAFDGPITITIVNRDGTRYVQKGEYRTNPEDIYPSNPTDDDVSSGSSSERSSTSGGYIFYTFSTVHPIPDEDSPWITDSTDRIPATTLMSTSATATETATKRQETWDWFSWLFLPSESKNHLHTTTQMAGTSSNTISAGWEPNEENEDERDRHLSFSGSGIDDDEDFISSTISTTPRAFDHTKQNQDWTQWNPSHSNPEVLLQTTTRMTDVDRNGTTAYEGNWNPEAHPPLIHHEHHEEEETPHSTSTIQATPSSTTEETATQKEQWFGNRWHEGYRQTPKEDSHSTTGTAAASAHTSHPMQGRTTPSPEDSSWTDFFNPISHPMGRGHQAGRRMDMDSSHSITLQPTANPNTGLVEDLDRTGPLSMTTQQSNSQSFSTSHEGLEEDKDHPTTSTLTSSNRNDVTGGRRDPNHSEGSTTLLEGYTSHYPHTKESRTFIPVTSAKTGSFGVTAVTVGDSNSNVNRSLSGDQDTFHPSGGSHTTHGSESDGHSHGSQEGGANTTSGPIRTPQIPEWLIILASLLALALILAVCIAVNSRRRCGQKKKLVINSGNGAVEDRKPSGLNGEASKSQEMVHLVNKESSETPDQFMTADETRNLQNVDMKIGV

Molecule | induction of apoptosis, MDA-MB231 (MDA-MB231 cells [1]) | induction of apoptosis, 4T1 (4T1 cells) | induction of apoptosis, Panc-1 (Panc-1 cells [2]) | intracellular localization (MDA-MB231 cells [3]) | hematologic parameters and liver and kidney functional marker levels (4T1-luc cells) | luminescence signals and total photon flux from the whole body (4T1-luc cells) | TUNEL-positive apoptotic cells in primary tumor tissues (4T1-luc cells) | number of metastatic tumor nodules (4T1-luc cells) | percent survival (4T1-luc cells) | tumor volume (4T1-luc cells) | tumor weight (4T1-luc cells) | percent survival and TUNEL-positive apoptotic cells in tumor tissues (Panc-1 cells [4]) | tumor growth and metastasis to the lungs (Panc-1 cells [4]) | growth of MDA-MB231-luc metastases in the lungs (MDA-MB231-luc cells; crizotinib 25 mg/kg oral twice weekly for 3 weeks) | survival rate (MDA-MB231-luc cells; peptide 14.2 mg/kg i.v. thrice weekly or crizotinib 25 mg/kg oral twice weekly, 3 weeks, single treatment) | Kd [5] [µM]
CC[C@H](C)[C@H](NC(=O)[C@@H](NC(=O)[C@H](CC(N)=O)NC(=O)[C@H](CC(C)C)NC(=O)[C@H](CC(N)=O)NC(=O)[C@@H](N)CS)[C@@H](C)O)C(=O)N[C@@H](CC(=O)O)C(=O)N[C@H](C(=O)N[C@@H](CS)C(=O)NCC(=O)NCC(=O)NCC(=O)N[C@@H](CCCCN)C(=O)N[C@@H](CC(C)C)C(=O)N[C@@H](C)C(=O)N[C@@H](CCCCN)C(=O)N[C@@H](CC(C)C)C(=O)N[C@@H](C)C(=O)N[C@@H](CCCCN)C(=O)N[C@@H](CCCCN)C(=O)N[C@@H](CC(C)C)C(=O)N[C@@H](C)C(=O)N[C@@H](CCCCN)C(=O)N[C@@H](CC(C)C)C(=O)N[C@@H](C)C(=O)N[C@@H](CCCCN)C(=O)O)[C@@H](C)O [NLN-KLA] (H-CNLNTIDTCGGGKLAKLAKKLAKLAK-OH) | more efficiently than the combined treatment | more efficiently than the combined treatment | more efficiently than the combined treatment | closely co-localized with mitochondria and lysosomes | within or close to the normal ranges | decreased | increasing | reduced | increasing | reduced | reduced | increased | inhibited |  |  | 
CC(C)C[C@H](NC(=O)[C@H](CCCCN)NC(=O)CNC(=O)CNC(=O)CNC(=O)[C@H](CS)NC(=O)[C@H](CO)NC(=O)[C@H](CCCCN)NC(=O)[C@H](CC(C)C)NC(=O)[C@H](CCC(N)=O)NC(=O)[C@H](Cc1c[nH]c2ccccc12)NC(=O)[C@H](CCC(=O)O)NC(=O)[C@H](CC(N)=O)NC(=O)[C@@H](N)CS)C(=O)N[C@@H](C)C(=O)N[C@@H](CCCCN)C(=O)N[C@@H](CC(C)C)C(=O)N[C@@H](C)C(=O)N[C@@H](CCCCN)C(=O)N[C@@H](CCCCN)C(=O)N[C@@H](CC(C)C)C(=O)N[C@@H](C)C(=O)N[C@@H](CCCCN)C(=O)N[C@@H](CC(C)C)C(=O)N[C@@H](C)C(=O)N[C@@H](CCCCN)C(=O)O [NEW-KLA] (H-CNEWQLKSCGGGKLAKLAKKLAKLAK-OH) | more efficiently than the combined treatment | more efficiently than the combined treatment | more efficiently than the combined treatment | closely co-localized with mitochondria and lysosomes | within or close to the normal ranges | decreased | increasing | reduced | increasing | reduced | reduced | increased | inhibited |  |  | 
C[C@@H](Oc1cc(-c2cnn(C3CCNCC3)c2)cnc1N)c1c(Cl)ccc(F)c1Cl [crizotinib, reference compound] |  |  |  |  |  |  |  |  |  |  |  |  |  | inhibited | increased the survival rate | 
CNLNTIDTC [… peptide (NLN), label not stated] |  |  |  |  |  |  |  |  |  |  |  |  |  |  |  | 12
CNEWQLKSC [… peptide (NEW), label not stated] |  |  |  |  |  |  |  |  |  |  |  |  |  |  |  | 18
